Laboratory results as given in US20260028390A1, “ALPHA1-ANTITRYPSIN FOR USE IN THE TREATMENT OF DISEASES OR DISORDERS OF THE NERVOUS SYSTEM SUCH AS CHRONIC INFLAMMATORY DEMYELINATING POLYNEUROPATHY” (Ageronix SA, priority 2022, published 2026).
Several values for one entry are separate records, joined by “and”; a condition that tells them apart may be missing. Equal entries are not always repeated.

Legend:
[1] = system: CMT1A mice B6.Cg-Tg(PMP22)C3Fbas/J; assay: Sciatic nerve electrophysiology (CMAP, NCV), CMT mice treated with AAT 180 mg/kg/day sc; format: in vivo, mouse; details: 6 weeks old, CMT + hAAT
[2] = system: CMT1A mice B6.Cg-Tg(PMP22)C3Fbas/J; assay: Rotarod latency to fall, CMT mice treated with AAT 180 mg/kg/day sc; format: in vivo, mouse
Method: CMT MOUSE MODEL: Non-humanized CMT1A mice B6.Cg-Tg(PMP22)C3Fbas/J (three copies of the PMP22 gene), three groups of 8 animals each.
DOSAGE: 180 mg/kg/day non-clinical grade AAT (Sigma)
ADMINISTRATION: Subcutaneous (SC) (bi-daily injection of 90 mg/kg)
Animals were received at 6 weeks of age and housed under controlled conditions for the duration of the study. The study comprised two groups of 8 transgenic mice (CMT mice) each and one group of 8 age matched wild type (WT) C57B16 mice, serving as positive control. Animals were assigned to the following subcutaneous treatments twice daily at 7:00 AM and 7:00 PM for 2 weeks, starting from 8 weeks and up to 10 weeks of age: • Wild-type (WT, no disease) mice receiving vehicle, 0.9% NaCl (positive control) • CMT1A mice receiving vehicle, 0.9% NaCl (negative control) • CMT1A mice receiving AAT at 90 mg/kg per injection (daily dose 180 mg/kg)
The efficacy parameters included: • neuromuscular performance (rotarod latency to fall and grip strength test), • sciatic nerve electrophysiology (CMAP amplitude and NCV) • cytokine (IL-6 and TNFα), as well as NfL analysis • sciatic nerve histology (number of axons and axonal diameter),
On the first day of treatment (Day 1), the neuromuscular and performance of animals was tested with a rotarod test and a grip strength test, as well as sciatic nerve electrophysiology test, which measured the compound muscle action potential (CMAP) and the nerve conduction velocity (NCV). After the last treatment on Day 15, these tests were repeated. Animals were then left untreated for 2 additional weeks to evaluate the duration of the treatment effect. Following the 2-week treatment-free period until 12 weeks of age (Day 30), the behavioural and electrophysiological tests were repeated.

[3] = system: C3-PMP22 transgenic mice (CMT1A); assay: Sciatic nerve electrophysiology (EMG), CMT1A mouse study (50 mg/kg twice daily); format: in vivo; details: for Compound muscle action potential (Mean ± SEM) / Nerve conduction velocity (Mean ± SEM): CMT1A + AAT; for Amplitude, MEAN / Amplitude, individual mice / Conduction velocity, MEAN / Conduction velocity, individual mice / T1 distal, individual mice / T2 proximal, individual mice: CMT1A + hAAT
Text: As a murine model of CMT1A we used C3-PMP22 transgenic mice (B6.Cg-Tg(PMP22)C3Fbas/J, The Jackson Laboratory) which express three copies of a wild-type human peripheral myelin protein 22 (PMP22) gene (Verhamme, Camiel, et al. Journal of Neuropathology & Experimental Neurology 70.5 (2011): 386-398). Mice were housed in macrolon cages with filter hoods, in a continuously air-filtered room, thereby avoiding contamination. During experiments, paired animals were caged at a constant temperature with a day/night cycle of 12/12 hours. Animals were fed (control tap water and nutrition) ad libitum. Animal protocol is approved by the Animal Studies Committee of Languedoc Roussillon. This protocol and the laboratory procedures comply with French legislation, which implements the European Directives (Reference Number: D3417223, APAFIS #23920-2020020320279696 v3). Animal health was followed on a daily basis to ensure that only animals in good health enter the testing procedures and follow up the study.
Animals were split in 3 groups (wild-type control (subcutaneous 0.9% NaCl), CMT1A-vehicle (subcutaneous 0.9% NaCl), CMT1A-human alpha-1 antitrypsin (subcutaneous, twice daily, 50 mg/kg per injection)) of 3 mice each (3 weeks old males of 18±2.5 g at the beginning of study) and all went through the following protocol after 7 days of acclimation on site.
On the first and last day of treatment, the neuromuscular performance of animals was tested with a rotarod test, grip test and sciatic nerve electrophysiology test. After the last treatment at 8 weeks, these tests were repeated, and animals were sacrificed and the left sciatic nerve was sampled for histological evaluation of the number and size of […].
Sciatic nerve electrophysiology (EMG) provides sensitive and quantitative approach to measure compound muscle action potential and nerve conduction velocity amplitude in the animals and was done by stimulation of the sciatic nerve. Similar compound muscle action potential (CMAP) amplitudes were observed between groups at the baseline (6 weeks old).

[4] = 8 weeks old, CMT + hAAT 180 mg/kg/day SC, individual animal

alpha1-antitrypsin (AAT) protein was tested. Which “Amplitude, group MEAN” value ([1]; 8 mice) did it give?
The value was 6.628 mV.

And the Amplitude ([1]; individual mouse)?
The Amplitude was 7.828 mV and 3.009 mV and 5.770 mV and 5.919 mV and 7.925 mV and 8.742 mV and 6.803 mV and 7.028 mV.

And the Conduction velocity ([1]; individual mouse)?
The Conduction velocity was 31.949 m/s and 34.989 m/s and 30.328 m/s and 19.190 m/s and 18.114 m/s and 20.530 m/s and 26.247 m/s and 28.783 m/s.

And the T1 distal ([1]; individual mouse)?
The T1 distal was 7.416 ms and 5.701 ms and 12.428 ms and 5.913 ms and 6.041 ms and 3.664 ms and 4.204 ms and 3.385 ms.

What about the T2 proximal ([1]; individual mouse) of the same substance?
The T2 proximal was 7.885 ms and 6.130 ms and 12.922 ms and 6.694 ms and 6.869 ms and 4.395 ms and 4.775 ms and 3.906 ms.

What about the “Rotarod latency (Mean ± SD)” value ([2]; 8 weeks old (baseline, Day 1), CMT1A + AAT) of the same substance?
The value was 38.76 ± 4.90 s.

And the “Rotarod latency, group Mean” value ([2]; 8 weeks old, CMT + hAAT 180 mg/kg/day SC, 8 animals)?
Its value is 62.63 s.

What about the “Rotarod latency, Mean/animal” value [2, 4] of the same substance?
The value was 63.15 s and 51.81 s and 53.95 s and 52.25 s and 38.51 s and 92.09 s and 74.02 s and 75.23 s.

What about the “Rotarod latency, set 1” value [2, 4] of the same substance?
Its value is 55.48 s and 48.88 s and 60.00 s and 47.76 s and 30.45 s and 96.29 s and 74.06 s and 68.88 s.

What about the “Rotarod latency, set 2” value [2, 4] of the same substance?
Its value is 61.08 s and 61.14 s and 48.80 s and 53.19 s and 62.45 s and 79.58 s and 65.45 s and 74.87 s.

What about the “Rotarod latency, set 3” value [2, 4] of the same substance?
The value was 72.89 s and 45.41 s and 53.05 s and 55.82 s and 22.62 s and 100.40 s and 82.56 s and 81.93 s.

What about the “Rotarod latency (Mean ± SD)” value ([2]; 10 weeks old (Day 15, after 2 weeks AAT 90 mg/kg sc twice daily)) of the same substance?
Its value is 57.77 ± 19.19 s.

What about the “rotarod latency to fall vs untreated group” value ([2]; 12 weeks of age, after 2-week treatment-free period) of the same substance?
Its value is “non-significantly different”.

What about the “Rotarod latency (Mean ± SD)” value ([2]; 12 weeks old (Day 30, after 2-week treatment-free period)) of the same substance?
The value was 36.92 ± 1.66 s.

What about the “NCV compared to the vehicle treated group” value ([3]; CMT1A + AAT treated group, 8 weeks old) of the same substance?
The value was “increase”.

What about the “Compound muscle action potential (Mean ± SEM)” value ([3]; 6 weeks old) of the same substance?
Its value is 6.47 ± 0.30 mV.

And the “Nerve conduction velocity (Mean ± SEM)” value ([3]; 6 weeks old)?
Its value is 24.91 ± 4.13 m/s.

What about the “Nerve conduction velocity (Mean ± SEM)” value ([3]; 8 weeks old) of the same substance?
The value was 20.89 ± 1.63 m/s.

And the “Compound muscle action potential (Mean ± SEM)” value ([3]; 8 weeks old, p < 0.05 vs CMT1A + vehicle)?
Its value is 5.63 ± 1.18 mV.

What about the “Amplitude, MEAN” value ([3]; 6 weeks old (baseline)) of the same substance?
The value was 6.471 mV.

And the “Amplitude, individual mice” value ([3]; 6 weeks old (baseline))?
Its value is 7.030 mV and 6.025 mV and 6.359 mV.

What about the “Conduction velocity, MEAN” value ([3]; 6 weeks old (baseline)) of the same substance?
The value was 24.909 m/s.

What about the “Conduction velocity, individual mice” value ([3]; 6 weeks old (baseline)) of the same substance?
Its value is 31.277 m/s and 17.182 m/s and 26.268 m/s.

What about the “T1 distal, individual mice” value ([3]; 6 weeks old (baseline)) of the same substance?
The value was 0.00202 s and 0.00207 s and 0.0016 s.

What about the “T2 proximal, individual mice” value ([3]; 6 weeks old (baseline)) of the same substance?
The value was 0.0025 s and 0.00295 s and 0.00217 s.

And the “Amplitude, MEAN” value ([3]; 8 weeks old)?
Its value is 5.627 mV.

And the “Amplitude, individual mice” value ([3]; 8 weeks old)?
Its value is 3.799 mV and 5.260 mV and 7.822 mV.

What about the “Conduction velocity, MEAN” value ([3]; 8 weeks old) of the same substance?
The value was 20.892 m/s.

What about the “Conduction velocity, individual mice” value ([3]; 8 weeks old) of the same substance?
Its value is 23.904 m/s and 18.310 m/s and 20.464 m/s.

And the “T1 distal, individual mice” value ([3]; 8 weeks old)?
Its value is 0.00251 s and 0.00236 s and 0.00228 s.

And the “T2 proximal, individual mice” value ([3]; 8 weeks old)?
The value was 0.00313 s and 0.00318 s and 0.00302 s.

What about the “EMG parameters compared to the control” value ([3]; CMT1A mice treated with AAT, 8 weeks old) of the same substance?
The value was “improvement”.
